Legend:
in vivo [1] = experiment: in vivo
How it was run: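 Rabbit serum concentrations after IV and oral dosing fitted jointly by NLME compartmental modeling (−2LL minimization, Laplacian or QRPEM), exponential between-subject variability, combined additive/proportional error. CL, V2, Q, VZ, AUC (Dose/CL) and terminal half-life derived from population primary parameters.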

in vivo [2] = conditions: female, rabbit, in vivo, po
How it was run: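 Female New Zealand white rabbits (10-wk, 2.37±0.14kg) got the compound mixture IV via ear-vein catheter or orally into the mouth; serum sampled 15 min to 28 d, 3 (or 6 at 30 min) rabbits per time. Sparse-data noncompartmental analysis gave AUC (linear trapezoidal), CL or CL_F, half-life and F.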

[3] = female, New Zealand white (INRA 1777 line), rabbit, in vivo
[4] = female, New Zealand white, rabbit, in vivo
[5] = female, New Zealand white, rabbit, in vivo, po
[6] = population primary parameter, typical value, mean
[7] = New Zealand white (INRA 1777 line)
[8] = New Zealand white (INRA 1777 line), Serum concentration
[9] = New Zealand white, Serum concentration

What does the source list for `ClC(Cl)=C(c1ccc(Cl)cc1)c1ccc(Cl)cc1` [pp′DDE, 1,1-Dichloro-2,2-bis(p-chlorophenyl)ethylene]?
Vd (in vivo [1]; [3]): 35 L/kg; k el (in vivo [1]; [3]): 1.33e-05 s⁻¹; bioavailability (in vivo [1]; female, New Zealand white (INRA 1777 line), rabbit, in vivo, po, Oral bioavailability (F)): 72%; MRT (in vivo [1]; [4]): 10.9 days; half-life (in vivo [1]; [4]): 11.3 days; clearance (in vivo [1]; female, New Zealand white, rabbit, in vivo, Clearance): 2.17 mL/min/kg; AUC (in vivo [1]; female, New Zealand white, rabbit, in vivo, iv): 17 µM·h; AUC (in vivo [1]; [5]): 77 µM·h; AUCVO/dose (in vivo [1]; [5]): 5.35 μmol×h/L per μmol/kg BW; bioavailability (in vivo [1]; female, New Zealand white, rabbit, in vivo, po, Bioavailability): 72%; tvK12 (distribution rate constant) (in vivo [1]; [6]): 0.08353 h⁻¹; tvK21 (distribution rate constant) (in vivo [1]; [6]): 0.00729 h⁻¹; tvVc (volume of the central compartment) (in vivo [1]; [6]): 2.821 L/kg; tvKabs (rate constant of absorption) (in vivo [1]; population primary parameter, typical value, mean, MEHP after oral DEHP): 0.01994 h⁻¹; Volume(s) of the peripheral compartment (in vivo [1]; population secondary parameter, mean, for PFOA first peripheral compartment): 32 L/kg; AUC(0-inf) (in vivo [2]; [7]): 78.6 µM·h; CL/F (in vivo [2]; [7]): 3 mL/min/kg; Cmax (in vivo [2]; [7]): 580 nM; MRT (in vivo [2]; [7]): 12.8 days; Tmax (in vivo [2]; [7]): 1 days; Vd/F (in vivo [2]; [7]): 68.8 L/kg; bioavailability (in vivo [2]; [7]): 62%; half-life (in vivo [2]; [7]): 10.8 days; Serum concentration (in vivo [2]; New Zealand white (INRA 1777 line), 24 h): 430 nM; Serum concentration (in vivo [2]; New Zealand white (INRA 1777 line), 672.02 h): 40 nM; concentration at 0.57 h (in vivo [2]; [8]): 16 nM; concentration at 23.98 h (in vivo [2]; [8]): 250 nM; concentration at 24 h (in vivo [2]; [8]): 720 nM; concentration at 168 h (in vivo [2]; [8]): 110 nM; concentration at 671.96 h (in vivo [2]; [8]): 24 nM; concentration at 672.02 h (in vivo [2]; [8]): 31 nM; Serum concentration (in vivo [2]; New Zealand white, 72 h): 200 nM; concentration at 71.96 h (in vivo [2]; [9]): 250 nM; concentration at 72 h (in vivo [2]; [9]): 140 nM; concentration at 168 h (in vivo [2]; [9]): 110 nM; concentration at 168.02 h (in vivo [2]; [9]): 91 nM

Source: publication PMC8597046, “Use of Mixture Dosing and Nonlinear Mixed Effect Modeling of Eight Environmental Contaminants in Rabbits to Improve Extrapolation Value of Toxicokinetic Data” (Environmental Health Perspectives, 2021)
